The text below walks through data of patent US11066369B2, “N-(pyridin-2-yl)pyridine-sulfonamide derivatives and their use in the treatment of disease” (Novartis AG, priority 2016, dated 2021).

For experiment [1], the target named is T1, horseradish peroxidase (HRP) tagged delF508-CFTR (Homo sapiens, UniProt P13569, DEL508-508).
T1 construct: expressed in transfected cells
Description: Measurement of delF508-CFTR-HRP surface expression in CFBE41o- cells.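 For DelF508-CFTR-HRP Amax %: percent efficacy relative to reference corrector lumacaftor.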 The following applies: delF508-CFTR-HRP surface expression, CFBE41o- cells; for Emax: read-out: DelF508-CFTR-HRP Amax %; for pEC50: read-out: DelF508-CFTR-HRP EC50. Type of experiment: cell-based. A digest of the protocol: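 CFBE41o- bronchial epithelial cells stably expressing delF508-CFTR with HRP in the fourth extracellular loop; expression induced 48h with 500 ng/mL doxycycline, then compounds added (top 10 μM, 10-point 3-fold series, ≤0.5% DMSO) for 24h at 37° C. Surface HRP measured by luminescence with cell-impermeant substrate; EC50 from logistic fit of triplicates, plate-normalized to lowest concentration; efficacy also relative to a reference corrector.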

In a further experiment the target is T2, delF508-CFTR (Homo sapiens, UniProt P13569, DEL508-508).
T2 construct: functional activity of the CFTR channel (Chloride ion transport) in patient derived primary human bronchial epithelial cells; host or cells: patient-derived primary human bronchial epithelial cells (delF508-CFTR)
T2 sequence (P13569 with tags, fused parts or gaps DEL508-508): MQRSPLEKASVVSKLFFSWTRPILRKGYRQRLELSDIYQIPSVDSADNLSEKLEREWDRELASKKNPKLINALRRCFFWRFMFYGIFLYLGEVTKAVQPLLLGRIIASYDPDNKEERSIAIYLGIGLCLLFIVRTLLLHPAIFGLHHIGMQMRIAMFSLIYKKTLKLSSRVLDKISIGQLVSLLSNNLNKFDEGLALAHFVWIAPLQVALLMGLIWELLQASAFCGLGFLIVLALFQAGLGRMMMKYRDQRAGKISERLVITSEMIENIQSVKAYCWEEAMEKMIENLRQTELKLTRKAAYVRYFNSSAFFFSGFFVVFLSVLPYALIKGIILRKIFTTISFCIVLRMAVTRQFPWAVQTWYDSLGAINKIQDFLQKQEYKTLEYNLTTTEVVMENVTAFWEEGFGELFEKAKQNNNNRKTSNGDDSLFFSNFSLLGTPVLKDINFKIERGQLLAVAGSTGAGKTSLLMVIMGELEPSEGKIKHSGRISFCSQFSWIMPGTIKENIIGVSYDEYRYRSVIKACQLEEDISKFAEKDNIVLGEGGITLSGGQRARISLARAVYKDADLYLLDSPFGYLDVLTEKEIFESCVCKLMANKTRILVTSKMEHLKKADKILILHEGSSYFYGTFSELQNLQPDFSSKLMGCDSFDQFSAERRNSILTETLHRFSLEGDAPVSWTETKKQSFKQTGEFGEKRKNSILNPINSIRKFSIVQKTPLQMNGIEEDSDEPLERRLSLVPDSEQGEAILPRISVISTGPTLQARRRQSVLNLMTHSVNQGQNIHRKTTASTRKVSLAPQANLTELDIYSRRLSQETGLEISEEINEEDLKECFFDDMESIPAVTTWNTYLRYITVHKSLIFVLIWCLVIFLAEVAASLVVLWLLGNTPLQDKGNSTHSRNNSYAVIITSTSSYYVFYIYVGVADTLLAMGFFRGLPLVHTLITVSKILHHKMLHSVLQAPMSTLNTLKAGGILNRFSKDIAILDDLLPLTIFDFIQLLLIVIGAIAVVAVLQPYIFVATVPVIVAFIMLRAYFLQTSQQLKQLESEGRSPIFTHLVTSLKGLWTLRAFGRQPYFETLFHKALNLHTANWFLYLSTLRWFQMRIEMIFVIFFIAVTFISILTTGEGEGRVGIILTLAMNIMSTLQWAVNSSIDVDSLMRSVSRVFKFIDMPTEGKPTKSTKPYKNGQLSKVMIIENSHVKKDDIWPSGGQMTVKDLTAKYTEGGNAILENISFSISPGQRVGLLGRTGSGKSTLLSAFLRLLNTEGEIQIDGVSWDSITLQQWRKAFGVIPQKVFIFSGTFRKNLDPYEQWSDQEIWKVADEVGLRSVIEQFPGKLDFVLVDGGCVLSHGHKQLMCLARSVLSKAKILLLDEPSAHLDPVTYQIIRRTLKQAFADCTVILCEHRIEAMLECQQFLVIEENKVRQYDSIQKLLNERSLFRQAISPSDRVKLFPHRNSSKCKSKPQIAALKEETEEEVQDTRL
The experiment can be described thus: Measurement of delF508-CFTR functional activity in primary human bronchial epithelial cells (HBECs) using Multi-Transepithelial Clamp Circuit (MTECC-24) assay. It is filed as cell-based. The following applies: primary CF HBECs; for MTECC24 CFHBEC- Amax %: test compound added 24h before assay plus potentiator, relative to reference combination (2 μM corrector + 0.5 μM potentiator); for pEC50: test compound added 24h before assay, in the presence of potentiator, mean of at least two replicates, read-out: MTECC24 CFHBEC- EC50. A digest of the protocol: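 Patient-derived primary delF508-CFTR HBECs, differentiated at air-liquid interface ~2 weeks, treated basolaterally with compound for 24 h, then apical and basolateral compound in HEPES pH 7.4 assay medium. Equivalent short-circuit current (Ieq) recorded on MTECC-24 with sequential amiloride, forskolin, potentiator and INH-172; normalized to 0.1% DMSO, EC50 from curve fit.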

Molecules are shown by their SMILES. pEC50: −log10 of the molar value. Where a name gives a salt, the structure may show the parent alone.

T1 sequence (P13569 with tags, fused parts or gaps DEL508-508): as above

Consider `Cc1cccc(C)c1-c1nc(NS(=O)(=O)c2cccc(N3CCNC(=O)C3)n2)ccc1Cl` [Example 131, N-(5-chloro-6-(2,6-dimethylphenyl)pyridin-2-yl)-6-(3-oxopiperazin-1-yl)pyridine-2-sulfonamide], for which, in experiment [1], the Emax is 729% and the pEC50 was 5.67. Also, at delF508-CFTR, the “MTECC24 CFHBEC- Amax %” value is listed as 78.4% and the pEC50 was 7.60.

`Cc1cccc(C)c1-c1cc(C(F)(F)F)cc(NS(=O)(=O)c2cccc(N3CCNCC3)n2)n1` [Example 133, N-(6-(2,6-dimethylphenyl)-4-(trifluoromethyl)pyridin-2-yl)-6-(piperazin-1-yl)pyridine-2-sulfonamide Hydrochloride]: in experiment [1], the Emax is 570% and the pEC50 was 5.69. Further, on delF508-CFTR, the “MTECC24 CFHBEC- Amax %” value is given as 71.2% and the pEC50 was 7.01.

As for `Cc1ccc(F)cc1-c1nc(NS(=O)(=O)c2cccc(N3CCN4C[C@@H](F)C[C@@H]4C3)n2)ccc1Cl` [Example 134, N-(5-chloro-6-(5-fluoro-2-methylphenyl)pyridin-2-yl)-6-((7S,8aR)-7-fluorohexahydropyrrolo[1,2-a]pyrazin-2(1H)-yl)pyridine-2-sulfonamide], in experiment [1], the Emax was 906% and the pEC50 is 5.70. Besides, on delF508-CFTR, the “MTECC24 CFHBEC- Amax %” value is 112.7% and the pEC50 is 7.72.

As to `Cc1ccc(F)cc1-c1nc(NS(=O)(=O)c2cccc(N3CCN4C[C@@H](F)CC4[C@@H]3C)n2)ccc1Cl` (stereo partly drawn) [Example 135, N-(5-chloro-6-(5-fluoro-2-methylphenyl)pyridin-2-yl)-6-((1S,7S)-7-fluoro-1-methylhexahydropyrrolo[1,2-a]pyrazin-2(1H)-yl)pyridine-2-sulfonamide], in experiment [1], the Emax worked out at 804% and the pEC50 is 5.46. At delF508-CFTR, the “MTECC24 CFHBEC- Amax %” value turned out to be 95.3% and the pEC50 is 7.89.

Turning to `Cc1ccccc1-c1nc(NS(=O)(=O)c2cccc(N3CCN4C[C@@H](F)C[C@@H]4C3)n2)ccc1C(F)(F)F` [Example 138, 6-((7S,8aR)-7-fluorohexahydropyrrolo[1,2-a]pyrazin-2(1H)-yl)-N-(6-(o-tolyl)-5-(trifluoromethyl)pyridin-2-yl)pyridine-2-sulfonamide], in experiment [1], the Emax was found to be 636% and the pEC50 is 6.17. In addition, on delF508-CFTR, the “MTECC24 CFHBEC- Amax %” value is listed as 108.4% and the pEC50 is 7.81.

Regarding `Cc1c(F)cccc1-c1nc(NS(=O)(=O)c2cccc(N3CCN(C(C)(C)C)CC3)n2)ccc1Cl` [Example 140, 6-(4-(tert-butyl)piperazin-1-yl)-N-(5-chloro-6-(3-fluoro-2-methylphenyl)pyridin-2-yl)pyridine-2-sulfonamide], in experiment [1], the Emax worked out at 395% and the pEC50 is 5.46. On delF508-CFTR, the “MTECC24 CFHBEC- Amax %” value is 65.3% and the pEC50 was 7.53.

Regarding `Cc1c(F)cccc1-c1nc(NS(=O)(=O)c2cccc(N3CCN(C4CC4)CC3)n2)ccc1Cl` [Example 141, N-(5-chloro-6-(3-fluoro-2-methylphenyl)pyridin-2-yl)-6-(4-cyclopropylpiperazin-1-yl)pyridine-2-sulfonamide], in experiment [1], the Emax worked out at 938% and the pEC50 is 5.70. Moreover, on delF508-CFTR, the “MTECC24 CFHBEC- Amax %” value is 88.7% and the pEC50 was 8.07.

On to `Cc1c(F)cccc1-c1nc(NS(=O)(=O)c2cccc(N3CCN(C(C)(C)C)CC3)n2)ccc1C(F)(F)F` [Example 142, 6-(4-(tert-butyl)piperazin-1-yl)-N-(6-(3-fluoro-2-methylphenyl)-5-(trifluoromethyl)pyridin-2-yl)pyridine-2-sulfonamide], for which, in experiment [1], the Emax turned out to be 418% and the negative logarithm of the EC50 (pEC50) was 5.58. Moreover, on delF508-CFTR, the “MTECC24 CFHBEC- Amax %” value is 63.7% and the pEC50 is 8.28.

On to `Cc1c(F)cccc1-c1nc(NS(=O)(=O)c2cccc(N3CCN(C4CC4)CC3)n2)ccc1C(F)(F)F` [Example 144, 6-(4-cyclopropylpiperazin-1-yl)-N-(6-(3-fluoro-2-methylphenyl)-5-(trifluoromethyl)pyridin-2-yl)pyridine-2-sulfonamide], for which the pEC50 in experiment [1] was 5.73; on delF508-CFTR, 8.70. Also, on delF508-CFTR, the “MTECC24 CFHBEC- Amax %” value came out at 80.5%.

With `Cc1ccc(F)cc1-c1nc(NS(=O)(=O)c2cccc(N3CCN(C4CC4)CC3)n2)ccc1C(F)(F)F` [Example 145, 6-(4-cyclopropylpiperazin-1-yl)-N-(6-(5-fluoro-2-methylphenyl)-5-(trifluoromethyl)pyridin-2-yl)pyridine-2-sulfonamide], the pEC50 in experiment [1] was 5.90. In addition, on delF508-CFTR, the “MTECC24 CFHBEC- Amax %” value was found to be 90.9% and the pEC50 was 8.30.

Turning to `CC(C)(C)OC(=O)N1CCN(c2cccc(S(=O)(=O)Nc3ccc(C(F)(F)F)c(-c4ccccc4C4CC4)n3)n2)CC1` [Example 147, tert-butyl 4-(6-(N-(6-(2-cyclopropylphenyl)-5-(trifluoromethyl)pyridin-2-yl)sulfamoyl)pyridin-2-yl)piperazine-1-carboxylate], in experiment [1], the Emax is 482% and the pEC50 is 6.43. On delF508-CFTR, the “MTECC24 CFHBEC- Amax %” value amounted to 92.8% and the pEC50 is 8.38.

Turning to `O=S(=O)(Nc1ccc(C(F)(F)F)c(-c2ccccc2C2CC2)n1)c1cccc(N2CCNCC2)n1` [Example 148, N-(6-(2-cyclopropylphenyl)-5-(trifluoromethyl)pyridin-2-yl)-6-(piperazin-1-yl)pyridine-2-sulfonamide], in experiment [1], the Emax turned out to be 363% and the pEC50 was 5.61. Moreover, on delF508-CFTR, the “MTECC24 CFHBEC- Amax %” value came out at 74.1% and the pEC50 is 7.07.

Turning to `COc1ccc(F)cc1-c1nc(NS(=O)(=O)c2cccc(N3CCN(C(C)(C)C)CC3)n2)ccc1C(F)(F)F` [Example 149, 6-(4-(tert-butyl)piperazin-1-yl)-N-(6-(5-fluoro-2-methoxyphenyl)-5-(trifluoromethyl)pyridin-2-yl)pyridine-2-sulfonamide], in experiment [1], the Emax came to 289% and the pEC50 is 5.76. For the same compound, at delF508-CFTR, the “MTECC24 CFHBEC- Amax %” value is 76.0% and the pEC50 is 7.64.

For `O=S(=O)(Nc1ccc(C(F)(F)F)c(-c2ccccc2Cl)n1)c1cccc(N2CCNCC2)n1` [Example 150, N-(6-(2-chlorophenyl)-5-(trifluoromethyl)pyridin-2-yl)-6-(piperazin-1-yl)pyridine-2-sulfonamide hydrochloride], in experiment [1], the Emax was determined as 180% and the pEC50 is 5.45. Further, at delF508-CFTR, the “MTECC24 CFHBEC- Amax %” value is recorded as 64.4% and the pEC50 is 7.01.

With `Cc1c(F)cccc1-c1nc(NS(=O)(=O)c2cccc(N3CCNCC3)n2)ccc1C(F)(F)F` [Example 151, N-(6-(3-Fluoro-2-Methylphenyl)-5-(Trifluoromethyl)Pyridin-2-yl)-6-(Piperazin-1-yl)Pyridine-2-Sulfonamide Hydrochloride], in experiment [1], the Emax worked out at 187% and the pEC50 was 5.43. At delF508-CFTR, the “MTECC24 CFHBEC- Amax %” value is 75.3% and the pEC50 was 7.02.

With `Cc1ccc(F)cc1-c1nc(NS(=O)(=O)c2cccc(N3CCNCC3)n2)ccc1C(F)(F)F` [Example 152, N-(6-(5-Fluoro-2-Methylphenyl)-5-(Trifluoromethyl)Pyridin-2-yl)-6-(Piperazin-1-yl)Pyridine-2-Sulfonamide Hydrochloride], in experiment [1], the Emax was found to be 332% and the pEC50 is 5.57. At delF508-CFTR, the “MTECC24 CFHBEC- Amax %” value stood at 62.5% and the pEC50 was 7.24.

The pEC50 is −log10 of the EC50, conventionally taken in molar units.
